From patent publication US8034926B2 (Abbott Laboratories, priority 2007, dated 2011)
Entries after “also recorded” stand apart in the source; their conditions may differ.

Tests used:
[1] = pharmacokinetics after a single intravenous dose in cynomolgus monkey; details: in vivo, 2.5 mg/kg
[2] = release of drug from PC polymer-coated 316 L stainless steel coupons; assay type: physicochemical; details: PC polymer-coated 316 L coupon
From the text: Rubber septa from lids from HPLC vials were removed from the vials and placed into glass vials so that the “Teflon” side faced up. These septa served as supports for the test samples. The test samples were 316 L, stainless steel coupons that had been previously coated with a biocompatible polymer containing phosphorylcholine side groups (PC polymer). Coronary stents are commonly made of 316 L stainless steel and can be coated with the PC polymer to provide a depot site for loading drugs. The coated coupons, which serve to simulate stents, were placed onto the septa. By using a glass Hamilton Syringe, a solution of A-179578 and ethanol (10 μl) was applied to the surface of each coupon. The solution contained A-179578 (30.6 mg) dissolved in 100% ethanol (3.0 ml). The syringe was cleaned with ethanol between each application. The cap to the glass vial was placed on the vial loosely, thereby assuring proper ventilation. The coupon was allowed to dry for a minimum of 1.5 hours. Twelve (12) coupons were loaded in this way, six being used to determine the average amount of drug loaded onto the device and six being used to measure the time needed to release the drug from the devices.
The coupon was placed onto a 5210 Branson sonicator for one hour. The coupon was then removed from the solution, and the solution was assayed by HPLC.
The time release studies were performed by immersing and removing the individual coupons from fresh aliquots (10.0 ml) of 0.01 M phosphate buffer at a pH of 6.0 at each of the following time intervals; 5, 15, 30 and 60 minutes. For the remaining time points of 120, 180, 240, 300, 360 minutes, volumes of 5.0 ml of buffer were used. To facilitate mixing during the drug release phase, the samples were placed onto a Eberbach shaker set at low speed. All solution aliquots were assayed by HPLC after the testing of the last sample was completed.
The HPLC analysis was performed with a Hewlett Packard series 1100 instrument having the following settings: Injection Volume is 100 μl; Acquisition Time is 40 minutes; Flow Rate is 1.0 ml/min; Column Temperature is 40 degrees Celsius; Wavelength is 278 nm; Mobile Phase is 65% Acetonitrile/35% H20; and Column is YMC ODS-A S5 μm, 4.6×250 mm (Part No. Al2052546WT).

[3] = system: neointimal formation in porcine coronary arteries containing stents; assay: porcine coronary stent model, histomorphometry at 28 days; assay type: in vivo
From the text: The control stents are polymer-coated without drugs. This is important, for the polymer itself must not stimulate neointimal hyperplasia to a substantial degree. As the eluted drug disappears, an inflammatory response to the polymer could conceivably result in a late “catch-up phenomenon” where the restenosis process is not stopped, but instead slowed. This phenomenon would result in restenosis at late dates in human subjects.
Stems were implanted in two blood vessels in each pig. Pigs used in this model were generally 2-4 months old and weighed 30-40 kg. Two coronary stents were thus implanted in each pig by visually assessing a “normal” stent:artery ratio of 1.1-1.2.
Beginning on the day of the procedure, pigs were given oral aspirin (325 mg daily) and continued for the remainder of their course. General anesthesia was achieved by means of intramuscular injection followed by intravenous ketamine (30 mg/kg) and xylazine (3 mg/kg). Additional medication at the time of induction included atropine (1 mg) and flocillin (1 g) administered intramuscularly. During the stenting procedure, an intraarterial bolus of 10,000 units of heparin was administered.
Arterial access was obtained by cutdown on the right external carotid and placement of an 8F sheath. After the procedure, the animals were maintained on a normal diet without cholesterol or other special supplementation.
The BiodivYsio stent was used with nominal vessel target size of 3.0 mm. Two coronary arteries per pig were assigned at random to deployment of the stents. The stent was either a drug eluting stent (polymer plus drug stent) or a stent coated with a polymer only (polymer only stent). The stents were delivered by means of standard guide catheters and wires. The stent balloons were inflated to appropriate sizes for less than 30 seconds.
Each pig had one polymer only stent and one polymer plus drug stent placed in separate coronary arteries, so that each pig would have one stent for drug and one for control. A sample size of 20 pigs total was chosen to detect a projected difference in neointimal thickness of 0.2 mm with a standard deviation of 0.15 mm, at a power of 0.95 and […] 0.02.
Animals were euthanized at 28 days for histopathologic examination and quantification. Following removal of the heart from the perfusion pump system, the left atrial appendage was removed for access to the proximal coronary arteries. Coronary arterial segments with injuries were dissected free of the epicardium. Segments containing lesions were isolated, thereby allowing sufficient tissue to contain uninvolved blood vessel at either end. […]
The severity of vessel injury and the neointimal response were measured by calibrated digital microscopy. […]

[4] = system: neointima formation in the coronary arteries of adult miniature swine; assay: swine safety and efficacy study of drug dosages on in-stent neointima formation; assay type: in vivo, Yucatan miniature swine
Experimental: The purpose of this example was to evaluate the safety and efficacy of different drug dosages on neointima formation. Drug was delivered from the BiodivYsio OC stent (15 mm) coated with AST-578. In-stent neointima formation was measured at […]; 3 days, 1 month, and 3 months in the coronary arteries of adult miniature swine. Forty (40) animals were studied at each time interval (10 animals per dose). Each animal received one drug-coated stent and one control stent. The control stent contained no drug.
Potential local tissue toxicity was assessed at all time intervals by examining histopathologic changes in the stented region, adjacent coronary segments, perivascular tissue, and subserved myocardium. The mortality, angiographic implant and restudy data, histomorphometry data, and stent site histopathology were studied.

[5] = loading and release of drug from 15 mm BiodivYsio drug delivery stents; assay type: physicochemical; details: 15 mm BiodivYsio stent
Experimental: Twelve individual polymer-coated stents were placed on fixtures designed to hold the stent in a vertical position and the stents were immersed vertically in the drug solution for five minutes. The stents and fixtures were removed from the vials and excess drug solution was blotted away by contacting the stents with an absorbant material. The stents were then allowed to dry in air for 30 minutes in an inverted vertical position.
The stents were removed from the fixtures, and each stent was placed into 50/50 acetonitrile/phosphate buffer (pH 5.1, 2.0 ml) and sonicated for one hour. The stems were removed from the solution and solutions were assayed for concentration of drug, which allowed calculation of the amount of drug originally on the stents. This method was independently shown to remove at least 95% of the drug from the stent coating. On average, the stents contained 60 micrograms of drug±20 micrograms.
The drug-loaded stents were placed on the fixtures and placed into 0.01 M phosphate buffer (pH=6.0, 1.9 ml) in individual vials. These samples were placed onto an Eberbach shaker set at low speed to provide back-and-forth agitation. To avoid approaching drug saturation in the buffer, the stents were transferred periodically to fresh buffer vials at the following points: 15, 30, 45, 60, 120, 135, 150, 165, 180, 240, 390 minutes. The dissolution buffer vials were assayed by HPLC for the drug concentration at the end of the drug release period studied. The data, represented as % cumulative release of the drug as a function of time, is shown in tabular form below: […]

[6] = porcine coronary arteries, 28 days

40-epi-N-[2′-pyridone]-rapamycin [Example 2-pyridone]
AUC [1]: 2550 ng·h/mL

COC1CC2CCC(C)C(O)(O2)C(=O)C(=O)N2CCCCC2C(=O)OC(C(C)CC2CCC(n3cnnn3)C(OC)C2)CC(=O)C(C)C=C(C)C(O)C(OC)C(=O)C(C)CC(C)C=CC=CC=C1C (centres unmarked) [ABT-578, 42-(1-tetrazolyl)-rapamycin]
Percent Release ([2]; 0.01 M phosphate buffer pH 6.0, 0.00 min): 0.00%
Percent Release ([2]; 0.01 M phosphate buffer pH 6.0, 5.00 min): 1.87%
Percent Release ([2]; 0.01 M phosphate buffer pH 6.0, 15.00 min): 2.97%
Percent Release ([2]; 0.01 M phosphate buffer pH 6.0, 30.00 min): 3.24%
Percent Release ([2]; 0.01 M phosphate buffer pH 6.0, 60.00 min): 3.29%
Percent Release ([2]; 0.01 M phosphate buffer pH 6.0, 180.00 min): 4.36%
Percent Release ([2]; 0.01 M phosphate buffer pH 6.0, 240.00 min): 4.37%
Percent Release ([2]; 0.01 M phosphate buffer pH 6.0, 300.00 min): 6.34%
Percent Release ([2]; 0.01 M phosphate buffer pH 6.0, 360.00 min): 7.88%
lumen area vs polymer only stent [3, 6]: greater lumen area
neointimal area vs polymer only stent [3, 6]: lower neointimal area
neointimal thickness vs polymer only stent [3, 6]: lower neointimal thickness
neointimal hyperplasia ([3]; stent with polymer in porcine coronary artery): reduction in neointimal hyperplasia

CO[C@H]1C[C@@H]2CC[C@@H](C)[C@@](O)(O2)C(=O)C(=O)N2CCCC[C@H]2C(=O)O[C@H]([C@H](C)C[C@@H]2CC[C@H](n3cnnn3)[C@H](OC)C2)CC(=O)[C@H](C)/C=C(\C)[C@@H](O)[C@@H](OC)C(=O)[C@H](C)C[C@H](C)/C=C/C=C/C=C/1C [ABT-578, 42-(1-tetrazolyl)-rapamycin]
local coronary arterial wall toxicity: medial necrosis or stent malapposition ([4]; any dose group up to approximately 27 μg/mm stent length, any time interval): no local coronary arterial wall toxicity
histologic % stenosis vs control ([4]; one month, dose group 3): tendency towards decreased
absolute intima area vs control ([4]; one month, dose groups 3 and 4): trends for decreases
intima thickness vs control ([4]; one month, dose groups 3 and 4): trends for decreases
Intima area normalized to injury score vs control ([4]; one month, dose groups 3 and 4 (10 and 27 μg/mm)): significantly decreased
neointima formation in stented coronary arteries ([4]; one month, locally eluted from stent): significant inhibitory effect; also recorded: reduced in-stent neointima formation
extent of endothelial recovery over the stent struts ([4]; three days after implant, all dosages, scanning electron microscopy): did not appear retarded
persistent inhibitory effect on neointima ([4]; three months): weak tendency
% Cumulative Release of Drug ([5]; 0.01 M phosphate buffer pH 6.0, 15 min): 0.3%
% Cumulative Release of Drug ([5]; 0.01 M phosphate buffer pH 6.0, 30 min): 1.1%
% Cumulative Release of Drug ([5]; 0.01 M phosphate buffer pH 6.0, 45 min): 2.1%
% Cumulative Release of Drug ([5]; 0.01 M phosphate buffer pH 6.0, 60 min): 3.2%
% Cumulative Release of Drug ([5]; 0.01 M phosphate buffer pH 6.0, 120 min): 4.3%
% Cumulative Release of Drug ([5]; 0.01 M phosphate buffer pH 6.0, 135 min): 5.9%
% Cumulative Release of Drug ([5]; 0.01 M phosphate buffer pH 6.0, 150 min): 6.3%
% Cumulative Release of Drug ([5]; 0.01 M phosphate buffer pH 6.0, 165 min): 6.8%
% Cumulative Release of Drug ([5]; 0.01 M phosphate buffer pH 6.0, 180 min): 7.4%

COC1CC2CCC(C)C(O)(O2)C(=O)C(=O)N2CCCCC2C(=O)OC(C(C)CC2CCC(n3ccc(=O)cc3)C(OC)C2)CC(=O)C(C)C=C(C)C(O)C(OC)C(=O)C(C)CC(C)C=CC=CC=C1C (stereo not drawn) [Example 4-pyridone, 40-epi-N-[4′-pyridone]-rapamycin]
AUC [1]: 5590 ng·h/mL
